According to US5972946A, “Acetamide derivative, process for preparing the same, and a pharmaceutical composition containing the same” (Dainippon Pharmaceutical Co., Ltd., priority 1995, dated 1999):

Assays:
[1] = Collagen-induced arthritis inhibitory test 1; assay type: in vivo, mouse (DBA/1j, male); conditions: for severity of arthritis (arthritic score) versus control group / onset of arthritis delayed until (days after the booster immunization): 10 mg/kg oral daily; for onset of arthritis delayed until (days after the booster immunization): control onset on 28th day; for effect on collagen-induced arthritis inhibitory test (conclusion): experiment 4, 10 mg/kg oral
Method: Experiment 4: Collagen-induced arthritis inhibitory test 1
Collagen-induced arthritis inhibitory test is an experimental model for rheumatoid arthritis reported by Trethan, D. E. et al. [cf. […] J. Immunol., 140, 78-83 (1988)].
Collagen-induced arthritis inhibitory test was carried out according to Kakimoto, K. et al. (cf. above reference of Kakimoto, K. et al.) with slight modification. Solubilized bovine cartilage type II collagen (product of Elastine Products, U.S.A.) was emulsified in complete Freund's adjuvant (product of DIFCO Lab., U.S.A.). Male mice of DBA/1j strain (6 week-old; product of Nippon Charles River, Japan) were immunized by injection at the base of the tail with 150 μg of the emulsified collagen. After twenty one days from the immunization, arthritis was induced by a booster immunization of 150 μg of the emulsified collagen prepared in the same manner as above at the base of the tail again. A test compound was orally administered daily at the dose of 10 mg/kg from the first immunization. Mice were observed daily 5 days after the booster immunization for the onset of arthritis, and an arthritic score was derived by grading the severity of involvement of each paw five scales (0-4) according to the method of Wood, F. D. et al. [cf. Int. Arch. Allergy Appl. The severity of arthritis was estimated by the sum of the scores of all 4 paws, and the onset of the disease was determined when score 1 was observed.

[2] = target: peripheral (ω3) benzodiazepine (BZ) receptor (Rattus norvegicus, UniProt P16257); assay: BZω3 (peripheral-type) benzodiazepine receptor binding assay
Method: Experiment 1: Central (ω1, ω2) and peripheral (ω3) benzodiazepine (BZ) receptor binding assays
BZω1 and BZω2 receptor binding assays were carried out according to the method of Stephens, D. N. et al. [cf.
Receptor membrane fractions for ω1, ω2 and ω3 were prepared from the cerebellum (ω1), spinal cord (ω1) or kidney (ω3) in 7-8 week old male rats of Wistar strain by the procedure described below.
After the cerebellum or spinal cord was homogenized with 20 volumes of ice-cold 50 mM Tris-citrate buffer (pH 7.1), the homogenate was centrifuged for 15 minutes at 40,000 g. The pellet obtained was washed 4 times by the same procedure, frozen and stored for 24 hours at -60° C. The resulting pellet, after being thawed, washed with the buffer and centrifuged, was suspended in the buffer I for the binding assay (50 mM Tris-HCl buffer containing 120 mM NaCl, 5 mM KCl, 2 mM CaCl2 and 1 mM MgCl2 ; pH 7.4) and the suspension thus obtained (containing 1 g wet tissue/40 ml) was used for the BZω1 and BZω2 receptor binding assays. On the other hand, the kidney was homogenized with 20 volumes of the ice-cold buffer II for the binding assay (50 mM Na--K phosphate buffer containing 100 mM NaCl; pH 7.4), filtered through 4 sheets of gauze, and centrifuged for 20 minutes at 40,000 g. The pellet obtained was suspended in the buffer II and the suspension (containing 1 g wet tissue/100 ml) was used for the binding assay as BZω3 receptor membrane source.
Flumazenil (final concentration: 0.3 nM for (ω1 and 1 nM for ω2) and flunitrazepam (final concentration: 10 μM) were used for the BZω1 or BZω2 receptor binding assays as the isotope-labeled and unlabeled ligands, respectively. For the BZω3 receptor binding assay, [^3 H] 4'-chlorodiazepam (7-chloro-1,3-dihydro-1-methyl-5-(4-chlorophenyl)-2H-1,4-benzodiazepin-2-one) (final concentration: 0.5 nM) and diazepam (final concentration: 100 μM) were used as the isotope-labeled and unlabeled ligands, respectively. Incubation was performed for 30 minutes at 37° C. in the BZω1 or BZω2 receptor binding assays, and for 150 minutes at 0° C. in the BZω3 receptor binding assay. The BZω1 or BZω2 receptor binding assays were carried out in the presence of bicuculline (final concentration: 100 μM).
The binding assay was performed by the following procedure. After adding each test compound at certain known concentrations, a [^3 H] ligand and the buffer I or II to each test tube, each assay was started by addition of membrane preparation (total volume of 1 ml). After incubation, the assay was terminated by filtration with suction through a Whatman GF/B glass fiber filter using a cell harvester (Brandel, USA). The filters were rapidly washed 3 times with 5 ml of ice-cold 50 mM Tris-HCl buffer (pH 7.7) for ω1 and ω2, or the buffer II forω3, and transferred to scintillation vials containing 10 ml liquid scintillation cocktail (ACS-II, Amersham, USA). After a few hours, retained radioactivity was counted by a liquid scintillation spectrometer. Specific binding of [^3 H] ligands was calculated as the difference between amounts of radioactivity bound in the presence and absence of excess unlabeled ligands.

[3] = Light and dark box test (anti-anxiety effect); assay type: in vivo, mouse (Std-ddY, male); conditions: Mus musculus, 0.5 h; oral, 30 min before test; mice; p<0.05 vs vehicle; read-out: Anti-anxiety effect MED (minimum effective dose)
From the text: Experiment 2: Light and dark box test (anti-anxiety effect)
Anti-anxiety effect of test compounds was examined in a box with light and dark compartments according to the method of Crawley, J. and Goodwin, F. K. [cf. Pharmacol. Biochem. Behav. 13, 167-170 (1980)] with slight modification.
Light and dark box test is a useful, simple and handy method for behaviorally and pharmacologically examining anti-anxiety effect of the drugs, by utilizing the habit of rodents such as mice and rats, etc. which prefer to stay in a dark place, and regarding as positive drug effect the increase of the relative stay of the animals in the light compartment which is an uncomfortable place for the animals.
Light and dark box test was carried out using the test box device (35×15×17 cm) which comprises: a light compartment (20×15×17 cm) consisting of transparent acrylic plates and highly illuminated by an incandescent lamp (1,700 lux); a dark compartment (15×15×17 cm) being made of black acrylic plates connected to the light compartment; and at the boundary of compartments, an opening (4.4×5 cm) in which mice can go through freely between two compartments.
Male mice of Std-ddY strain weighing 25-30 g were used in a group of 10. Each trial was started by placing a mouse in the center of the light compartment 30 minutes after oral administration of a test compound, and the time spent by the mouse in the light compartment during a 5 minute observation period was measured, and the rate of the stay of mice in the light compartment to the whole time spent in the experiment was calculated. The increasing rate of the relative stay of the test compound to that of the vehicle control group was yielded, based on the rate of the stay of mice in the light compartment.
The anti-anxiety effect of the test compound was represented by the minimum effectivetive dose (MED) at which the increasing rate of the relative stay was regarded statistically as significant (Williams-Wilcoxon's test, p<0.05).

[4] = known from literature; cited from earlier work
[5] = Collagen-induced arthritis inhibitory test 2; assay type: in vivo, mouse (DBA/1j, female); conditions: for suppression of arthritis as compared with control: Example 165: at least until 34th day; for effect on collagen-induced arthritis inhibitory test (conclusion): experiment 5, 10 mg/kg oral
Method: Experiment 5: Collagen-induced arthritis inhibitory test 2
Collagen-induced arthritis inhibitory test was carried out according to Kakimoto, K. et al. (cf. above reference of Kakimoto, K. et al.) with slight modification. Type II collagen from bovine joints (product of the Collagen Research Center, Japan) was emulsified in complete Freund's adjuvant (product of DIFCO Lab., U.S.A.). Female mice of DBA/1j strain (product of Nippon Charles River, Japan) were immunized by injection at the base of the tail with 150 μg of the emulsified collagen. After twenty one days from the immunization, arthritis was induced by a booster immunization of 150 μg of the emulsified collagen prepared in the same manner as above at the base of the tail again. Test compounds were administered orally at a dose of 10 mg/kg on 5 consecutive days in a week for 8 weeks, beginning from the day before the immunization. Mice were monitored visually for arthritis once a week beginning from the day of the booster immunization. The severity of arthritis was estimated by the sum of the scores of all 4 paws.

Bacillus subtilis = conditions: Pharmazie, 43, 537-538 (1988); cited from earlier work

Row | SMILES | severity of arthritis (arthritic score) versus control group [1] | onset of arthritis delayed until (days after the booster immunization) [1] [days] | effect on collagen-induced arthritis inhibitory test (conclusion) [1] | IC50 [2] [nM] | effect in isoniazid-induced clonic convulsion test (known drugs) [4] | effect on collagen-induced arthritis inhibitory test (conclusion) [5] | further results
1 | Cc1nc(-c2ccc(Cl)cc2)nc(OCC(=O)N(C)c2ccccc2)c1C [Example 144, 2-[2-(4-Chlorophenyl)-5,6-dimethyl-4-pyrimidinyloxy]-N-methyl-N-phenylacetamide] | much lower than the control group | 37 | potent effect | 0.31 |  |  | 
2 | CCCN(CCC)C(=O)COc1nc(-c2ccccc2)nc(C)c1C [Example 136, 2-(5,6-dimethyl-2-phenyl-4-pyrimidinyloxy)-N,N-dipropylacetamide] | much lower than the control group | 34 | potent effect | 0.34 |  |  | minimal effective dose [3]: 0.3 mg/kg
3 | C[C@]12CC[C@@H](O)C[C@@H]1CC[C@@H]1[C@@H]2CC[C@]2(C)[C@@H](C(=O)CO)CC[C@@H]12 [THDOC, allotetrahydrodeoxycorticosterone] |  |  |  |  | positive effect |  | 
4 | CN1C(=O)CN=C(c2ccccc2)c2cc(Cl)ccc21 [diazepam] |  |  |  |  | positive effect |  | 
5 | CCN(C(=O)COc1nc(-c2ccc(N)cc2)nc(C)c1C)c1ccccc1 [Example 165, 2-[2-(4-aminophenyl)-5,6-dimethyl-4-pyrimidinyloxy]-N-ethyl-N-phenylacetamide] |  |  |  | 5.07 |  | potent effect | suppression of arthritis as compared with control ([5]; 10 mg/kg oral, 5 days a week): markedly suppressed the arthritis as compared with control group
6 | CC(=O)c1c(C)nc(-c2ccccc2)nc1SCC(=O)Nc1ccc(Cl)cc1 [2-(5-acetyl-6-methyl-2-phenyl-4-pyrimidinylthio)-N-(4-chlorophenyl)acetamide] |  |  |  |  |  |  | antibacterial activity against Bacillus subtilis (Bacillus subtilis): shows antibacterial activity against Bacillus subtilis
7 | CC(=O)[C@H]1CC[C@H]2[C@@H]3CC[C@H]4C[C@H](O)CC[C@]4(C)[C@H]3CC[C@]12C [allopregnanolone] |  |  |  |  | positive effect |  | 
8 | CCCN(CCC)C(=O)CNc1cc(-c2ccccc2)nc(-c2ccccc2)n1 [Example 93, 2-(2,6-Diphenyl-4-pyrimidinylamino)-N,N-dipropylacetamide] | much lower than the control group | 40 | potent effect | 4.1 |  |  | 
9 | CCCN(CCC)C(=O)CNc1nc(-c2ccc(C(F)(F)F)cc2)nc(C)c1C [Example 6, 2-[5,6-Dimethyl-2-(4-trifluoromethylphenyl)-4-pyrimidinylamino]-N,N-dipropylacetamide] |  |  |  | 0.23 |  | potent effect | minimal effective dose [3]: 0.3 mg/kg; onset of arthritis delayed until (days after the booster immunization) ([5]; 10 mg/kg oral, 5 consecutive days a week for 8 weeks): 21 days; severity of arthritis versus control group ([5]; 10 mg/kg oral, 5 days a week, at least until day 34, last day of the experiment): much lower than the control group
10 | CCCN(C(=O)COc1nc(-c2ccccc2)nc(C)c1C)c1ccccc1 [Example 178, 2-(5,6-Dimethyl-2-phenyl-4-pyrimidinyloxy)-N-phenyl-N-propylacetamide] |  |  |  | 0.57 |  | less potent effect | suppression of arthritis as compared with control ([5]; 10 mg/kg oral, 5 days a week): the arthritis was suppressed as compared with the control
